Data on three compounds can be found in patent US12152083B2 (priority 2014, dated 2024).

Data set [1] has as its system Jurkat cells. Description: Cell cycle arrest assay. It is filed as cell-based. To be noted: 50 nM, 24 h, propidium iodide. Here is the method:
Jurkat cells (ATCC), cultured in RMPI-1640 media supplemented with 10% FBS, were obtained in logarithmic growth. 1 million cells/ml were seeded into a 12-well tissue-culture treated plate in a 950 μL volume. Cells were treated with Compound 5 in 50 μL of growth media such that the final concentration of Compound 5 was 50 nM, control cells were given 50 μL of growth media alone. Cells were incubated for 24 h at 37° C., 5% CO2 in a humidified incubator. Following incubation, cells were thoroughly resuspended and transferred to 5 mL FACS tubes, and stored on ice. Two washes were performed by spinning cells down in a swinging-bucket centrifuge at 450×g for 4 min, resuspending in 1 mL ice-cold PBS. Cells were fixed through the addition of 3 mL ice-cold 100% ethanol in a dropwise fashion under vortex, and immediately stored at 4° C. for 1 h. During the 1 h incubation, the following staining solution was prepared in ice-cold PBS: 10 μg/ml propidium iodide, 10 U/ml RNAse 1f, and 0.05% Triton X-100. Following the 1 h fixation incubation, ethanol was removed by spinning cells as described above, and washing twice in 1 mL ice-cold PBS. Cells were resuspended in 500 μL of the above-mentioned staining solution, and incubated at room temperature for 1 h. […] Histograms were generated using FCS Express, plotting # of events against fluorescence in FL-3.

Data set [2] deals with Human Pancreatic cell line BxPC-3. The data set is described as follows: Cellular cytotoxicity of compounds, Example 3.1 (CellTiter-Glo). The data set is classed as cell-based. To be noted: five nights. The method, then:
(§1) Compounds were tested on one or more of Human T-cell leukemia cell line Jurkat (ATCC: TIB-152); Human breast cancer cell lines HCC1954 (ATCC: CRL-2338) and JIMT-1 (DSMZ: ACC 589); Human Pancreatic cell line BxPC-3 (ATCC: CRL.1687), Human ovarian adenocarcinoma cell line SK-OV-3 (ATCC: HTB-77) and Human gastric carcinoma cell line NCI-N87 (ATCC: CRL. 5822); to assess their cytotoxicity.
(§2) Briefly, cells were obtained from commercial sources and cultured as described in the product sheet provided. Cells were removed from their culture vessels and the resulting cell suspension was counted using a ViCell (Beckman Coulter), then seeded at 25,000 cells/mL (2,500 cells/well) in Costar 3904 black walled, flat bottomed 96-well plates (cells were seeded in the inner 60 wells of 96-well TC plates, and outer edge wells filled with water). Adherent cell lines were incubated for one night at 37° C./5% CO2 atmosphere to allow the cells to attach to the microtiter plate surface, while suspension (Jurkat) cells were plated immediately before use. Cytotoxins were dissolved and serially diluted in dimethyl sulfoxide and then the solutions were added to complete growth medium at five-times the desired maximum final concentration. The cytotoxins were then titrated in growth medium, normally 1:3, over eight steps. A control with no test article present (growth medium alone) was included on each microtiter plate in sextuplicate. The prepared toxin titrations were added (25 μL/well) in triplicate to each cell line assayed. […] After the incubation, cell viability was measured using CellTiter-Glo® by adding 30 μL of prepared CellTiter-Glo® reagent to each assay well. The mixtures were incubated for at least twenty minutes in the dark prior to measuring emitted luminescence using a microplate luminometer (500 ms integration time). The collected relative luminescence units (RLU) were converted to % cytotoxicity using the growth medium alone control mentioned above (% Cytotoxicity=1−[well RLU/average medium alone control RLU]×[…]).
On the technique in general: ATP-based viability assays read luminescence as a measure of living cells.

Data set [3] has as its system Human T-cell leukemia cell line Jurkat. The data set is described as above. It is filed as cell-based. Conditions: three nights. The method, then: as §1, §2
Data set [4] has as its system Human gastric carcinoma cell line NCI-N87. The data set is described as above. The data set is classed as cell-based. To be noted: five nights. Here is the method:
as §1, §2

The subject of data set [5] is Jurkat cell line. The data set is described as follows: Cytotoxicity of compounds, Example 3 (CellTiter-Glo, 3 days). To be noted: titrated 1:3 starting with 30 nM. It is filed as cell-based, Human. The method, then:
Compounds were tested on Jurkat and HCC1954 cell lines to assess their cytotoxicity. Compounds were titrated 1:3 starting at various concentrations (30 nM to 1000 nM). Control cytotoxin HTI-286 (see, e.g., U.S. Pat. No. 7,579,323) was also titrated 1:3 across starting with a 30 nM concentration. Plates were incubated for 3 days. Cell viability was quantified using 30 μL/well of 1× CellTiter-Glo reagent.
Each cell line was grown in its respective growth medium until seeding day. Cells were removed from their culture vessels and the resulting cell suspension was counted using the ViCell. Cells were then diluted in their growth medium to 25000/mL such that 100 μL/well=2500 cells/well. Each cell line was seeded in the inner 60 wells of 96-well black walled TC plates, outer wells filled with water. HCC1954 were seeded a day prior to assay set up. Cytotoxins were diluted as described below a 5× dose-response of each compound was prepared using RPMI+10% FBS in a deep-well 96-well plate. This “master” dilution plate was used for each cell line. 25 μL of the 5× dose responses was spiked into each cell line in triplicate. The plates were returned to the incubator and were incubated for 3 nights. After the 3 nights, cell viability was quantified using 30 μL/well of 1× CellTiter-glo reagent. After at least 10 minutes of incubation, the luminescence was measured using the SpectraMax (500 ms integration).

The test system of data set [6] is Jurkat, HCC1954, NCI-N87, BxPC-3, SK-OV-3, and JIMT-1 Cell Lines. The data set is described as follows: Cellular cytotoxicity, Example 3.1, control cytotoxin on all cell lines. The data set is classed as cell-based, Human. To be noted: Example 3.1 cell lines. The method, then: as §1
Briefly, cells were obtained from commercial sources and cultured as described in the product sheet provided. Cells were removed from their culture vessels and the resulting cell suspension was counted using a ViCell (Beckman Coulter), then seeded at 25,000 cells/mL (2,500 cells/well) in Costar 3904 black walled, flat bottomed 96-well plates (cells were seeded in the inner 60 wells of 96-well TC plates, and outer edge wells filled with water). […] After the incubation, cell viability was measured using CellTiter-Glo® by adding 30 μL of prepared CellTiter-Glo® reagent to each assay well. The mixtures were incubated for at least twenty minutes in the dark prior to measuring emitted luminescence using a microplate luminometer (500 ms integration time). The collected relative luminescence units (RLU) were converted to % cytotoxicity using the growth medium alone control mentioned above (% Cytotoxicity=1−[well RLU/average medium alone control RLU]×[…]).

On to `CC[C@H](C)[C@@H]([C@@H](CC(=O)N1CCC[C@H]1[C@H](OC)[C@@H](C)C(=O)NS(=O)(=O)c1ccc(N)cc1)OC)N(C)C(=O)[C@@H](NC(=O)[C@H](C(C)C)N(C)C)C(C)C` [Compound 5, (S)—N-((3R,4S,5S)-1-((S)-2-((1R,2R)-3-(4-Aminophenylsulfonamido)-1-methoxy-2-methyl-3-oxopropyl)pyrrolidin-1-yl)-3-methoxy-5-methyl-1-oxoheptan-4-yl)-2-((S)-2-(dimethylamino)-3-methylbutanamido)-N,3-dimethylbutanamide], for which the “DNA content histograms, cell cycle phase” value in data set [1] was “pronounced shift towards G2/M phase of the cell cycle”.

On to `CC[C@H](C)[C@@H]([C@@H](CC(=O)N1CCC[C@H]1[C@H](OC)[C@@H](C)C(=O)NS(=O)(=O)c1ccc(NC(=O)C(F)(F)F)cc1)OC)N(C)C(=O)[C@@H](NC(=O)[C@@H](NC)C(C)(C)c1ccccc1)C(C)C` [Compound 18], for which the EC50 in data set [2] was determined as 2.3 nM; in data set [3] it was 1.5 nM; in data set [4], 0.9 nM.

As to `CN[C@H](C(=O)N[C@H](C(=O)N(C)[C@H](/C=C(\C)C(=O)O)C(C)C)C(C)(C)C)C(C)(C)c1ccccc1` [HTI-286], the “killing of Jurkats by control cytotoxin” value in data set [5] is given as “successfully killed Jurkats at an expected concentration”. Besides, the “killing of all cell lines by control cytotoxin” value in data set [6] is reported as “successfully killed all cell lines at an expected concentration”.

For orientation: EC50 means the midpoint of the concentration-response curve. Low values mean an effect from little substance, high ones a need for much substance.
